# According to patent US20170042991A1, “COMPOSITIONS COMPRISING GLUTEN PEPTIDES AND USES THEREOF” (ImmusanT, Inc., priority 2014, published 2017):
# Non-standard residues stand in square brackets, D forms with d. pGlu = O=C1CC[C@@H](C(=O)O)N1
# System: gluten-reactive T cells
# Experiment: Cytokine release assays taken together (IFNγ ELISpot, whole blood IFNγ and IP-10 release)
# Format: cell-based, human
# Details: for relative activity among individual peptides tested: blood collected after oral gluten challenge, HLA-DQ2.5+ subjects
# Description: Gluten peptide solutions for addition to whole blood were arranged according to standardized templates in sterile 96-well U-bottom plates (30 μL/well). Plates were sealed with adhesive ELISA plate cover slips before the plastic lid was replaced and being frozen at −80° C. Whole blood assay (WBA) “medium” (1% DMSO in 90% PBS and 9% normal saline), mitogen (PHA-L, Sigma-Aldrich #L2769; St Louis Mo.) 100 μg/ml in WBA medium, and CEF diluted to 10 μg/ml in PBS with a final concentration of 1% DMSO were frozen separately in sterile cryovials. 96-well plates and cryovials with frozen incubation solutions were shipped on dry ice to the clinical site where blood was collected and incubations performed. Solutions were thawed at room temperature for 10 min just before being added to whole blood. 96-well plates were thawed while being centrifuged at 300 g to avoid surface condensation. A multi-channel pipette was used to efficiently transfer 25 μL of peptide solutions from the original 96-well plate to corresponding wells in a fresh sterile 96-well U-bottom plate. Once incubation solutions had been added, 225 μL of whole blood was added to each well and the plate transferred to incubate for 24 h at 37° C. 5% CO2. […] Individual peptides were incubated at a final assay concentration of 5 μM. Final concentrations of individual peptides assessed in P3 was 0.05-50 μg/mL, and in P14 and P13 pools 0.025-25 μM. The P71 pool was tested at between 0.005-10 μg/mL, the highest tested concentration being the maximal possible not exceeding 0.1% DMSO. Peptide pools, mitogen, and medium only were assessed in triplicate wells, and on Day-6 individual peptides were assessed in duplicate wells. Incubations were terminated after 24 h, and 96-well plates centrifuged at 300 g for 10 min. A total of approximately 90 to 120 μL of plasma was removed from each well taking care to avoid red cell contamination, and transferred into corresponding wells of two further 96-well plates (one with 30 μL/well and the residual in the second plate). Plasmas were frozen at −80° C. and later shipped on dry ice to the central lab where IP-10 and IFNγ multiplex bead assays were performed according to manufacturer's instructions using 25 μL plasma per well (Milliplex® MAP Human Cytokine/Chemokine Magnetic Bead Panel #HCYTOMAG-60k-02; EMD Millipore Corp., Billerica, Mass. 01821) and analysed with the Luminex® MAGPIX® System xPONENT® software (Luminex Corporation, Austin Tex. 78727). Plasma cytokine levels for each assay condition were expressed as the mean analyte concentration of each of the three replicate incubations. Laboratory staff were unaware of the arrangement of peptide solutions incubated with during assay setup and plate counting. […]
Substance,relative activity among individual peptides tested,activity as a fraction of that of Peptide 14 (three cytokine release assays)
(pE)LQPFPQPELPYPQPQ-amide ([pGlu]LQPFPQPELPYPQPQ-NH2; SMILES CC(C)C[C@H](NC(=O)[C@@H]1CCC(=O)N1)C(=O)N[C@@H](CCC(N)=O)C(=O)N1CCC[C@H]1C(=O)N[C@@H](Cc1ccccc1)C(=O)N1CCC[C@H]1C(=O)N[C@@H](CCC(N)=O)C(=O)N1CCC[C@H]1C(=O)N[C@@H](CCC(=O)O)C(=O)N[C@@H](CC(C)C)C(=O)N1CCC[C@H]1C(=O)N[C@@H](Cc1ccc(O)cc1)C(=O)N1CCC[C@H]1C(=O)N[C@@H](CCC(N)=O)C(=O)N1CCC[C@H]1C(=O)N[C@@H](CCC(N)=O)C(N)=O) [Peptide 1],most active of this group of related peptides,no more than two-thirds
(pE)PEQPIPEQPQPYPQQ-amide ([pGlu]PEQPIPEQPQPYPQQ-NH2; SMILES CC[C@H](C)[C@H](NC(=O)[C@@H]1CCCN1C(=O)[C@H](CCC(N)=O)NC(=O)[C@H](CCC(=O)O)NC(=O)[C@@H]1CCCN1C(=O)[C@@H]1CCC(=O)N1)C(=O)N1CCC[C@H]1C(=O)N[C@@H](CCC(=O)O)C(=O)N[C@@H](CCC(N)=O)C(=O)N1CCC[C@H]1C(=O)N[C@@H](CCC(N)=O)C(=O)N1CCC[C@H]1C(=O)N[C@@H](Cc1ccc(O)cc1)C(=O)N1CCC[C@H]1C(=O)N[C@@H](CCC(N)=O)C(=O)N[C@@H](CCC(N)=O)C(N)=O) [Peptide 3],consistently the second most active peptide after Peptide 14,–
